In assay [1] the test system is mitochondrial membrane potential. The format is cell-based, mouse. Conditions: Conc 20 μM; for ΔΨm (composite Z-score): normalized score vs mock-treated (DMSO) wells.
The test system of another assay is reactive oxygen species. The format is cell-based, mouse. Conditions: Conc 20 μM; for ROS (composite Z-score): normalized score vs mock-treated (DMSO) wells.
Another assay has as its system OXPHOS gene expression. The format is cell-based, mouse. Conditions: Conc 20 μM; for GE-HTS (composite Z-score): normalized score vs mock-treated (DMSO) wells.
The subject of another assay is nuOXPHOS transcripts. The assay is classed as cell-based, mouse. Conditions: Conc 20 μM; for nucOX (composite Z-score): normalized score vs mock-treated (DMSO) wells.
Another assay has as its system mtOXPHOS transcripts. The assay is classed as cell-based, mouse. The settings on record: Conc 20 μM; for mitoOX (composite Z-score): normalized score vs mock-treated (DMSO) wells.
Another assay relates to cytochrome c. The assay is classed as cell-based, mouse. The settings on record: Conc 20 μM; for cyt c (composite Z-score): normalized score vs mock-treated (DMSO) wells.
The next assay deals with C2C12 myotubes. The settings on record: Conc 20 μM; for Viability (composite Z-score): normalized score vs mock-treated (DMSO) wells.
For assay [2], the system named is cellular dehydrogenase activity. The settings on record: Conc 20 μM; for MTT (composite Z-score): normalized score vs mock-treated (DMSO) wells.
Setting [3] is: composite Z-score vs mock-treated (DMSO) wells.

Each structure is given as a SMILES string. Read-outs that look alike come from different tables or passages of the source.

Consider `C[C@]12CCC(=O)C=C1CCc1ccc(O)cc12`, for which, in assay [1] (setting [3]), the ΔΨm is −0.484. Also, the ROS in the assay on reactive oxygen species (setting [3]) amounted to 0.676. Besides, in the assay with OXPHOS gene expression (setting [3]), the GE-HTS amounted to 0.075. The same molecule displayed a nucOX with nuOXPHOS transcripts (setting [3]) of −0.281. This molecule registered a mitoOX in the assay on mtOXPHOS transcripts (setting [3]) of 0.846. The same molecule returned a cyt c in the assay on cytochrome c (setting [3]) of −0.516. For the same molecule, the Viability in the assay with C2C12 myotubes (setting [3]) was −0.592. Moreover, the MTT in assay [2] (setting [3]) is −0.984.
In assay [1] (composite Z-score vs DMSO), `COc1ccc2c(c1)C1(C)CCC(O)CC1CC2` (centres unmarked) displayed a ΔΨm of −0.840. In the assay with reactive oxygen species (composite Z-score vs DMSO), the ROS is 0.559. The GE-HTS in the assay on OXPHOS gene expression (composite Z-score vs DMSO) was −0.375. Further, in the assay on nuOXPHOS transcripts (composite Z-score vs DMSO), the nucOX was −0.350. In the assay with mtOXPHOS transcripts (composite Z-score vs DMSO), this molecule yielded a mitoOX of −0.270. The molecule also had a cyt c with cytochrome c (composite Z-score vs DMSO) of −0.087. The same molecule registered a Viability in the assay with C2C12 myotubes (composite Z-score vs DMSO) of −1.078. In assay [2] (composite Z-score vs DMSO), the MTT was −2.017.
The molecule `Cc1ccc2c(c1)CC[C@H]1CC(=O)CC[C@]21C` had a ΔΨm in assay [1] (setting [3]) of −0.470. Further, in the assay with reactive oxygen species (setting [3]), the ROS amounted to 0.072. In the assay with OXPHOS gene expression (setting [3]), the GE-HTS worked out at 0.903. Further, the nucOX with nuOXPHOS transcripts (setting [3]) is 0.870. This molecule displayed a mitoOX in the assay on mtOXPHOS transcripts (setting [3]) of 0.748. Further, the cyt c with cytochrome c (setting [3]) is 0.009. Also, the Viability in the assay with C2C12 myotubes (setting [3]) is −0.093. For the same molecule, the MTT in assay [2] (setting [3]) is recorded as −2.132.
Regarding `COc1cccc2c1CCC1=CC(=O)CCC12C` (centres unmarked), the ΔΨm in assay [1] (setting [3]) is recorded as −0.506. Also, the ROS with reactive oxygen species (setting [3]) is 0.673. Besides, the GE-HTS with OXPHOS gene expression (setting [3]) was −0.465. The molecule also had a nucOX with nuOXPHOS transcripts (setting [3]) of −0.372. In the assay on mtOXPHOS transcripts (setting [3]), this molecule came in with a mitoOX of −0.626. The molecule also returned a cyt c in the assay on cytochrome c (setting [3]) of −0.293. The molecule further displayed a Viability in the assay on C2C12 myotubes (setting [3]) of −0.577. Further, the MTT in assay [2] (setting [3]) is recorded as −1.530.
`CCOC(=O)c1oc2c(OC)c(O)cc(O)c2c(=O)c1-c1cc(OC)c(OC)c(OC)c1` had a ΔΨm in assay [1] (setting [3]) of −0.397. Besides, in the assay on reactive oxygen species (setting [3]), the ROS is reported as 0.244. For the same molecule, the GE-HTS in the assay with OXPHOS gene expression (setting [3]) is given as −1.306. The nucOX in the assay on nuOXPHOS transcripts (setting [3]) is listed as −1.229. The molecule also returned a mitoOX in the assay on mtOXPHOS transcripts (setting [3]) of −1.218. The cyt c with cytochrome c (setting [3]) is given as −0.783. Further, the Viability in the assay on C2C12 myotubes (setting [3]) is −1.124. The molecule also came in with an MTT in assay [2] (setting [3]) of −0.761.
Regarding `CCOc1ccc(C(=O)C2=C(O)C(OC)C(O)(OC)C=C2)cc1` (centres unmarked), the “ΔΨm (composite Z-score)” value in assay [1] is 0.089. The “ROS (composite Z-score)” value in the assay on reactive oxygen species was −0.264. For the same molecule, in the assay with OXPHOS gene expression, the “GE-HTS (composite Z-score)” value was −1.530. For the same molecule, the “nucOX (composite Z-score)” value with nuOXPHOS transcripts was −1.393. Besides, in the assay on mtOXPHOS transcripts, the “mitoOX (composite Z-score)” value was −1.568. Also, the “cyt c (composite Z-score)” value in the assay with cytochrome c worked out at 0.559. Moreover, the “Viability (composite Z-score)” value with C2C12 myotubes is −0.048. In addition, in assay [2], the “MTT (composite Z-score)” value is −1.130.
For `CCOc1cc(CC(=O)c2ccc(O)c(O)c2O)ccc1O`, in assay [1], the “ΔΨm (composite Z-score)” value is reported as −1.362. Moreover, in the assay with reactive oxygen species, the “ROS (composite Z-score)” value came out at 0.189. Also, the “GE-HTS (composite Z-score)” value with OXPHOS gene expression came out at 1.215. The “nucOX (composite Z-score)” value in the assay with nuOXPHOS transcripts was determined as 1.496. Also, the “mitoOX (composite Z-score)” value in the assay on mtOXPHOS transcripts is on record as 0.371. Moreover, the “cyt c (composite Z-score)” value with cytochrome c was 0.255. Also, the “Viability (composite Z-score)” value in the assay with C2C12 myotubes is −1.198. Moreover, the “MTT (composite Z-score)” value in assay [2] is listed as −1.279.
For the molecule `CC12CCC(O)CC1CCc1ccccc12` (centres unmarked), the “ΔΨm (composite Z-score)” value in assay [1] is recorded as −0.339. Also, the “ROS (composite Z-score)” value with reactive oxygen species amounted to 0.477. Besides, in the assay with OXPHOS gene expression, the “GE-HTS (composite Z-score)” value is recorded as −0.250. Further, the “nucOX (composite Z-score)” value with nuOXPHOS transcripts is −0.023. Also, the “mitoOX (composite Z-score)” value with mtOXPHOS transcripts is on record as −0.717. In addition, the “cyt c (composite Z-score)” value in the assay with cytochrome c is on record as 0.790. The “Viability (composite Z-score)” value in the assay with C2C12 myotubes was 0.056. Further, the “MTT (composite Z-score)” value in assay [2] is on record as −0.574.
Turning to `CC(=O)O[C@H]1CC[C@]2(C)C3=CC(=O)[C@]4(C)[C@@H]5[C@H](C[C@H]4[C@@H]3CC[C@H]2C1)O[C@@]1(OCC(C)CC1Br)[C@H]5C` (some centres unmarked), in assay [1], the “ΔΨm (composite Z-score)” value is given as −0.260. Moreover, in the assay with reactive oxygen species, the “ROS (composite Z-score)” value is on record as 1.188. Also, the “GE-HTS (composite Z-score)” value with OXPHOS gene expression was −0.560. For the same molecule, the “nucOX (composite Z-score)” value with nuOXPHOS transcripts was −0.585. Also, the “mitoOX (composite Z-score)” value in the assay on mtOXPHOS transcripts is −0.446. Also, the “cyt c (composite Z-score)” value with cytochrome c is given as 0.565. Further, the “Viability (composite Z-score)” value in the assay with C2C12 myotubes is on record as 0.710. Besides, the “MTT (composite Z-score)” value in assay [2] is given as −2.231.
On to `C=C1C2CC[C@@]3(C)[C@H](c4ccoc4)OC(=O)C[C@]13O[C@H]1C[C@H](OC(C)=O)C(C)(C)[C@H](CC(=O)OC)[C@@]21C`, for which the “ΔΨm (composite Z-score)” value in assay [1] is reported as −0.388. The “ROS (composite Z-score)” value in the assay on reactive oxygen species was −0.319. In addition, in the assay with OXPHOS gene expression, the “GE-HTS (composite Z-score)” value was determined as 0.772. In addition, in the assay on nuOXPHOS transcripts, the “nucOX (composite Z-score)” value was 0.446. For the same molecule, the “mitoOX (composite Z-score)” value in the assay on mtOXPHOS transcripts was found to be 1.332. For the same molecule, the “cyt c (composite Z-score)” value in the assay on cytochrome c is −0.069. In the assay with C2C12 myotubes, the “Viability (composite Z-score)” value was −0.316. Also, the “MTT (composite Z-score)” value in assay [2] is −0.881.

For the origin of these results see patent US20090143279A1 (priority 2007, published 2009).
